The values below come from patent US9856247B2, “4-methyl-dihydropyrimidines for the treatment and prophylaxis of Hepatitis B virus infection” (Hoffmann-La Roche Inc., priority 2012, dated 2018).

What is called EC50 is the concentration giving half of the maximal effect.

In data set [1] the test system is HBV DNA. Put plainly: Anti-HBV activity in HepDE19 cells (HBV DNA dot-blot). It is filed as cell-based, Hepatitis B virus (HBV). The following applies: Hepatitis B virus, 120 h; HepDE19 cells, five days after compound treatment, concentration that inhibited HBV DNA by 50%; read-out: HepDe19 EC50. The text has this: Cells and culture conditions: HepDE19 (Haitao Guo et al, Journal of Virology, 81, November 2007, 12472-12484; Richeng Mao et al, Journal of Virology, 85, January 2011, 1048-1057) cells were derived from HepG2 (ATCC, American Type Culture Collection) cells through transfection with pTet-off plasmid (Clontech) that expresses the Tet-responsive transcriptional activator and pTREHBVDE plasmid in which HBV pgRNA expression is controlled by a CMV early promoter with a tetracycline-responsive element. The transfected cells were selected with G418 (also known as Genticin, purchased from Invitrogen). […] These cells were maintained in Dulbecco's modified Eagle's medium (DMEM)-F12 medium (Invitrogen) supplemented with 10% fetal bovine serum, 100 U/ml penicillin, and 100 μg/ml streptomycin, 0.5 mg/ml of G418 and 1 μg/ml tetracycline.
Anti-HBV activity and cytotoxicity: HepDE19 cells were seeded into 96-well plates (3×10^4 cells/well) with tetracycline-free medium and incubated overnight at 37° C. The test or control compounds were serially half-log diluted with medium and added into the plates (the final concentration of DMSO kept at 0.5% in each well). Five days after compound treatment, cells were washed with PBS and lysed with 50 mM Tris-1 mM EDTA-0.2% CA-630 (pH 8.0) at 37° C. for 20 min. After centrifugation to remove nuclei and other debris, the supernatant was transferred into a new plate and incubated with 2M NaOH/20×SSC (3M NaCl, 0.3M Sodium citrate, pH7.0) at rt for 30 min. Then the samples were transferred to nylon membrane and neutralized with 1M Tris (pH7.4)/2M NaCl. The presence of HBV DNA was detected by dot-blot with DIG-labeled HBV specific DNA probe and quantified by dot density. The compound concentrations that inhibited HBV DNA by 50% (EC50) were determined (See Table 1).

Data set [2] is described as follows: in vitro. The following applies: human. The protocol:
The transfected cells were selected with G418 (also known as Genticin, purchased from Invitrogen). […] These cells were maintained in Dulbecco's modified Eagle's medium (DMEM)-F12 medium (Invitrogen) supplemented with 10% fetal bovine serum, 100 U/ml penicillin, and 100 μg/ml streptomycin, 0.5 mg/ml of G418 and 1 μg/ml tetracycline.
To determine if the anti-HBV effect of compound is due to cytotoxicity, HepDE 19 cells (5×10^3 cells/well) were seeded into 96-well plates and compounds were treated as described above. […] Four hours after incubation at 37° C., the absorbance at wavelengths of 450 nm and 630 nm (OD450 and OD630) was recorded by a plate reader.

Each structure is given as a SMILES string.

Regarding `COC(=O)C1=C(CN2CC(F)(F)CCC2C(=O)O)NC(c2nccs2)=N[C@@]1(C)c1ccc(F)cc1` (stereo partly drawn) [Example 25, (S)-6-(2-carboxy-5,5-difluoro-piperidin-1-ylmethyl)-4-(4-fluoro-phenyl)-4-methyl-2-thiazol-2-yl-1,4-dihydro-pyrimidine-5-carboxylic acid methyl ester], the EC50 in data set [1] came out at 1.09 µM. For the same compound, the CC50 at 5 days in data set [2] is at least 100 µM.

Take `COC(=O)C1=C(CN2CC(F)(F)C[C@H]2C(=O)NS(C)(=O)=O)NC(c2nccs2)=N[C@@]1(C)c1ccc(F)cc1` [Example 51, (S)-6-((S)-4,4-difluoro-2-methanesulfonylaminocarbonyl-pyrrolidin-1-ylmethyl)-4-(4-fluoro-phenyl)-4-methyl-2-thiazol-2-yl-1,4-dihydro-pyrimidine-5-carboxylic acid methyl ester]: the EC50 in data set [1] amounted to 18.2 µM. This compound registered a CC50 at 5 days in data set [2] of 90 µM.

In the case of `COC(=O)C1=C(CN2C[C@H](F)C[C@H]2C(=O)O)NC(c2nccs2)=N[C@@]1(C)c1ccc(F)cc1` [Example 34, (S)-6-((2S,4R)-2-Carboxy-4-fluoro-pyrrolidin-1-ylmethyl)-4-(4-fluoro-phenyl)-4-methyl-2-thiazol-2-yl-1,4-dihydro-pyrimidine-5-carboxylic acid methyl ester], in data set [1], the EC50 was 2.84 µM. In data set [2], this compound showed a CC50 at 5 days of at least 100 µM.

Take `COC(=O)C1=C(CN2CCOC[C@H]2C(=O)O)NC(c2nccn2C)=N[C@@]1(C)c1ccc(F)cc1` [Example 30, (S)-4-[(S)-6-(4-fluoro-phenyl)-5-methoxycarbonyl-6-methyl-2-(1-methyl-1H-imidazol-2-yl)-3,6-dihydro-pyrimidin-4-ylmethyl]-morpholine-3-carboxylic acid]: the EC50 in data set [1] came to 6.77 µM. The compound also returned a CC50 at 5 days in data set [2] of at least 100 µM.

Turning to `C[C@@]1(c2ccc(F)c(F)c2)N=C(c2nccs2)NC(CN2CC(F)(F)C[C@H]2C(=O)O)=C1C#N` [Example 23, (S)-1-[(S)-5-Cyano-6-(3,4-difluoro-phenyl)-6-methyl-2-thiazol-2-yl-3,6-dihydro-pyrimidin-4-ylmethyl]-4,4-difluoro-pyrrolidine-2-carboxylic acid], in data set [1], the EC50 turned out to be 7 µM. The same compound had a CC50 at 5 days in data set [2] of over 100 µM.

For the compound `COC(=O)C1=C(CN2CC(F)(F)C[C@H]2C(=O)OCCN(C)C)NC(c2nccs2)=N[C@@]1(C)c1ccc(F)cc1` [Example 46, (S)-6-[(S)-2-(2-dimethylamino-ethoxycarbonyl)-4,4-difluoro-pyrrolidin-1-ylmethyl]-4-(4-fluoro-phenyl)-4-methyl-2-thiazol-2-yl-1,4-dihydro-pyrimidine-5-carboxylic acid methyl ester], in data set [1], the EC50 turned out to be 2.13 µM. In data set [2], this compound came in with a CC50 at 5 days of at least 100 µM.

`COC(=O)C1=C(CN2CC(F)(F)C[C@H]2C(=O)Nc2nccs2)NC(c2nccs2)=N[C@@]1(C)c1ccc(F)cc1` [Example 52, (S)-6-[(S)-4,4-difluoro-2-(thiazol-2-ylcarbamoyl)-pyrrolidin-1-ylmethyl]-4-(4-fluoro-phenyl)-4-methyl-2-thiazol-2-yl-1,4-dihydro-pyrimidine-5-carboxylic acid methyl ester]: in data set [1], the EC50 turned out to be 5.43 µM. In data set [2], this compound displayed a CC50 at 5 days of 4.07 µM.

In the case of `COC(=O)C1=C(CN2CC(F)(F)C[C@H]2c2nnn[nH]2)NC(c2nccs2)=N[C@@]1(C)c1ccc(F)cc1` [Example 58, (S)-6-[(S)-4,4-difluoro-2-(1H-tetrazol-5-yl)-pyrrolidin-1-ylmethyl]-4-(4-fluoro-phenyl)-4-methyl-2-thiazol-2-yl-1,4-dihydro-pyrimidine-5-carboxylic acid methyl ester], in data set [1], the EC50 is 1.02 µM. In data set [2], this compound came in with a CC50 at 5 days of at least 100 µM.

As to `COC(=O)C1=C(CN2CC(F)(F)C[C@H]2C(=O)O)NC(c2ncc(C)s2)=NC1(C)c1ccc(F)cc1` (stereo partly drawn) [Example 19, 6-((S)-2-Carboxy-4,4-difluoro-pyrrolidin-1-ylmethyl)-4-(4-fluoro-phenyl)-4-methyl-2-(5-methyl-thiazol-2-yl)-1,4-dihydro-pyrimidine-5-carboxylic acid methyl ester], the EC50 in data set [1] came out at 16.7 µM. In data set [2], this compound returned a CC50 at 5 days of over 100 µM.

As to `COC(=O)C1=C(CN(CC(=O)O)CC(F)(F)F)NC(c2nccs2)=N[C@@]1(C)c1ccc(F)cc1` [Example 44, (S)-6-{[carboxymethyl-(2,2,2-trifluoro-ethyl)-amino]-methyl}-4-(4-fluoro-phenyl)-4-methyl-2-thiazol-2-yl-1,4-dihydro-pyrimidine-5-carboxylic acid methyl ester], in data set [1], the EC50 came to 21.5 µM. This compound registered a CC50 at 5 days in data set [2] of at least 100 µM.

Turning to `CCOC(=O)C1=C(CN2CC(F)(F)C[C@H]2C(=O)O)NC(c2nccs2)=N[C@]1(C)c1ccc(F)c(F)c1` [Example 28, (R)-6-((S)-2-carboxy-4,4-difluoro-pyrrolidin-1-ylmethyl)-4-(3,4-difluoro-phenyl)-4-methyl-2-thiazol-2-yl-1,4-dihydro-pyrimidine-5-carboxylic acid ethyl ester], in data set [1], the EC50 stood at 7.48 µM. For the same compound, in data set [2], the CC50 at 5 days was at least 100 µM.

Turning to `COC(=O)C1=C(CN2CC(F)(F)C[C@H]2C(=O)N(C)C)NC(c2nccs2)=N[C@@]1(C)c1ccc(F)cc1` [Example 49, (S)-6-((S)-2-dimethylcarbamoyl-4,4-difluoro-pyrrolidin-1-ylmethyl)-4-(4-fluoro-phenyl)-4-methyl-2-thiazol-2-yl-1,4-dihydro-pyrimidine-5-carboxylic acid methyl ester], in data set [1], the EC50 stood at 0.29 µM. This compound also returned a CC50 at 5 days in data set [2] of at least 100 µM.

Turning to `COC(=O)C1=C(CN2CC(F)(F)C[C@H]2C(=O)O)NC(c2cc(C)on2)=NC1(C)c1ccc(F)cc1` (stereo partly drawn) [Example 40, 6-((S)-2-carboxy-4,4-difluoro-pyrrolidin-1-ylmethyl)-4-(4-fluoro-phenyl)-4-methyl-2-(5-methyl-isoxazol-3-yl)-1,4-dihydro-pyrimidine-5-carboxylic acid methyl ester], the EC50 in data set [1] turned out to be 5.39 µM. Besides, in data set [2], the CC50 at 5 days is at least 100 µM.

For the compound `C[C@@]1(c2ccc(F)cc2)N=C(c2nccs2)NC(CN2CC(F)(F)C[C@H]2C(=O)O)=C1C#N` [Example 21, (S)-1-[(S)-5-Cyano-6-(4-fluoro-phenyl)-6-methyl-2-thiazol-2-yl-3,6-dihydro-pyrimidin-4-ylmethyl]-4,4-difluoro-pyrrolidine-2-carboxylic acid], in data set [1], the 50% effective concentration (EC50) came out at 21 µM. Further, the CC50 at 5 days in data set [2] was over 100 µM.

With `COC(=O)C1=C(COC(C)(C)C(=O)OC)NC(c2nccs2)=NC1(C)c1ccc(F)cc1` (stereo not drawn) [Example 1, 4-(4-Fluoro-phenyl)-6-(1-methoxycarbonyl-1-methyl-ethoxymethyl)-4-methyl-2-thiazol-2-yl-1,4-dihydro-pyrimidine-5-carboxylic acid methyl ester], the EC50 in data set [1] was 26.3 µM. Further, the CC50 at 5 days in data set [2] is over 100 µM.

`COC(=O)C1=C(CN2CC(F)(F)C[C@H]2C(C)(C)O)NC(c2nccs2)=N[C@@]1(C)c1ccc(F)cc1` [Example 54, (S)-6-[(S)-4,4-difluoro-2-(1-hydroxy-1-methyl-ethyl)-pyrrolidin-1-ylmethyl]-4-(4-fluoro-phenyl)-4-methyl-2-thiazol-2-yl-1,4-dihydro-pyrimidine-5-carboxylic acid methyl ester]: the EC50 in data set [1] stood at 0.7 µM. In addition, the CC50 at 5 days in data set [2] stood at 50.4 µM.

For the compound `CCOC(=O)C1=C(CN2CCOC[C@H]2C(=O)O)NC(c2nccs2)=NC1(C)c1ccc(F)c(F)c1` (stereo partly drawn) [Example 29, (S)-4-[6-(3,4-difluoro-phenyl)-5-ethoxycarbonyl-6-methyl-2-thiazol-2-yl-3,6-dihydro-pyrimidin-4-ylmethyl]-morpholine-3-carboxylic acid], in data set [1], the EC50 is 3.98 µM. The CC50 at 5 days in data set [2] was at least 100 µM.

As for `COC(=O)C1=C(CN2CC(F)(F)C[C@H]2C(=O)O)NC(c2cc(F)cs2)=N[C@@]1(C)c1ccc(F)cc1` [Example 43, (S)-6-((S)-2-carboxy-4,4-difluoro-pyrrolidin-1-ylmethyl)-4-(4-fluoro-phenyl)-2-(4-fluoro-thiophen-2-yl)-4-methyl-1,4-dihydro-pyrimidine-5-carboxylic acid methyl ester], in data set [1], the EC50 was found to be 0.131 µM. The same compound showed a CC50 at 5 days in data set [2] of at least 100 µM.
